Numbered stars: 1 amine (or outer) side, 2 acyl side, 3 side chain; on linkers, the order of the positions; unused ones are H or OH. Square brackets hold non-standard residues; d marks the D form. Side chains are listed from the residue outwards. Peptide text beside a SMILES is read from it. * marks the point of attachment. C18 diacid = O=C(O)CCCCCCCCCCCCCCCCC(=O)*; γGlu = O=C(O)[C@H](CCC(=O)[*:2])N[*:1]; εLys = N[C@@H](CCCCN[*:1])C(=O)[*:2]; AEEA = NCCOCCOCC(=O)O; Aib = CC(C)(N)C(=O)O

One series deals with T1, human GLP-1 receptor (Homo sapiens, UniProt P43220).
T1 construct: expressed in transfected cells; host or cells: BHK cells (parent line BHKTS13), clone FCW467-12A; membrane preparation
Briefly: GLP-1 receptor binding: competitive binding assay (125I-GLP-1, SPA) on isolated membranes at low and high HSA. Conditions: high serum albumin (2.0% HSA final assay concentration); displacement of 125I-GLP-1. A general note: Displacement assays read how much labelled ligand stays bound in the presence of the test substance.

The next series can be described thus: in vivo. Conditions: male, Göttingen, minipig, iv.

T1 sequence (P43220 24-463): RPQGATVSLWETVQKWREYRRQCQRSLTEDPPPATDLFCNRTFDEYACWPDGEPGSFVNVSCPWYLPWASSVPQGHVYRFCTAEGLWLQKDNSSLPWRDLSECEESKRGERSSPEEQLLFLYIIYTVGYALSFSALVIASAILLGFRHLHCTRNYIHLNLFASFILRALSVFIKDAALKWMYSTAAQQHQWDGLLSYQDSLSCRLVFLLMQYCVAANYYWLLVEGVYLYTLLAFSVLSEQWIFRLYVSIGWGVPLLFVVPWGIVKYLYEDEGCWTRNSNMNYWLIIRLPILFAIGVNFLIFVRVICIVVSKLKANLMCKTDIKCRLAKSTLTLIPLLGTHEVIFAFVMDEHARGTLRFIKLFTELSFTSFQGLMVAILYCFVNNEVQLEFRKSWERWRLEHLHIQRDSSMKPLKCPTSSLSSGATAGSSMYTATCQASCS
Description for human GLP-1 receptor: The purpose of this example is to test the receptor binding of the GLP-1 derivatives in vitro. The receptor binding is a measure of affinity of a derivative for the human GLP-1 receptor.
In this type of assay a labelled ligand (in this case ^125I-GLP-1) is bound to the receptor. Each derivative is added in a series of concentrations to isolated membranes containing the human GLP-1 receptor and displacement of the labelled ligand is monitored. The receptor binding is reported as the concentration at which half of the labelled ligand is displaced from the receptor, the IC50 value.
The following chemicals were used in the assay: Human serum albumin (HSA) (Sigma A1653), DMEM w/o phenol red (Gibco 11880-028), Pen/strep (Invitrogen 15140-122), G418 (Invitrogen 10131-027), 1 M Hepes (Gibco 15630), EDTA (Invitrogen 15575-038), PBS (Invitrogen 14190-094), fetal calf serum (Invitrogen 16140-071), EGTA, MgCl2 (Merck 1.05832.1000), Tween 20 (Amresco 0850C335), SPA particles (wheat germ agglutinin (WGA) SPA beads, Perkin Elmer RPNQ0001), [^125I]-GLP-1]-(7-36)NH2 (produced in-house), OptiPlate™-96 (Packard 6005290).
Buffer 1 consisted of 20 mM Na-HEPES plus 10 mM EDTA and pH was adjusted to 7.4. Buffer 2 consisted of 20 mM Na-HEPES plus 0.1 mM EDTA and pH was adjusted to 7.4. Assay buffer consisted of 50 mM HEPES supplemented with 5 mM EGTA, 5 mM MgCl2, 0.005% Tween 20 and pH was adjusted to 7.4. An 8% albumin stock consisted of HSA dissolved at 8% (w/v) in assay buffer. An 0.02% albumin stock consisted of HSA dissolved at 0.02% (w/v) in assay buffer.
The cells express the human GLP-1 receptor.
The cells were grown at 5% CO2 in DMEM, 10% fetal calf serum, 1% Pen/Strep (Penicillin/Streptomycin) and 1.0 mg/ml of the selection marker G418.
To make a membrane preparation the cells were grown to approximately 80% confluence. The cells were washed twice in phosphate-buffered saline and harvested. The cells were pelleted using a brief centrifugation and the cell pellet was kept on ice. The cell pellet was homogenised with ULTRA-THURRAX™ dispersing instrument for 20-30 seconds in a suitable amount of buffer 1 (e.g., 10 ml). The homogenate was centrifuged for 15 minutes. The pellet was re-suspended (homogenised) in 10 ml buffer 2 and centrifuged. This step was repeated once more. The resulting pellet was re-suspended in buffer 2 and the protein concentration was determined. The membranes were aliquoted and stored at minus 80° C.
For the receptor binding assay in the presence of low HSA (0.005%) 50 μl of the assay buffer was added to each well of an assay plate. Assay continued with step 3.
For the receptor binding assay in the presence of high HSA (2%) 50 μl of the 8% albumin stock was added to each well of an assay plate. Assay continued with step 3.
Cell membrane aliquots were thawed and diluted to their working concentration. Fifty μl were added to each well in the assay plate.
WGA SPA beads were suspended in assay buffer at 20 mg/ml. The suspension was diluted to 10 mg/ml in assay buffer just prior to addition to the assay plate. Fifty μl were added to each well in the assay plate.
The incubation was started by adding 25 μl of 480 pM solution of [^125I]-GLP-1]-(7-36)NH2 to each well of the assay plate. A 25 μl aliquot was reserved for measuring total counts/well.
The assay plate was incubated for 2 h at 30° C.
The assay plate was centrifuged for 10 min.
The assay plate was read in a Packard TopCount NXT instrument.
The data from the TopCount instrument were transferred to GraphPad Prism software. The software averaged the values for the replicates and performed a non-linear regression. IC50 values were calculated by the software and reported in nM.
Description for in vivo: The purpose of this study is to determine the protraction in vivo of the GLP-1 derivatives after i.v. administration to minipigs, i.e. the prolongation of their time in the body and thereby their time of action. This is done in a pharmacokinetic (PK) study, where the terminal half-life of the derivative in question is determined. By terminal half-life is meant the time it takes to halve a certain plasma concentration in the terminal elimination phase.
Male Göttingen minipigs were obtained from Ellegaard Göttingen Minipigs (Dalmose, Denmark) approximately 7-14 months of age and weighing approximately 16-35 kg were used in the studies. The minipigs were housed either individually (pigs with permanent catheters) or in a group and fed restrictedly once or twice daily with SDS minipig diet (Special Diets Services, Essex, UK).
After at least 2 weeks of acclimatisation two permanent central venous catheters were implanted in vena cava caudalis or cranialis in each animal. The animals were allowed 1 week recovery after the surgery, and were then used for repeated pharmacokinetic studies with a suitable wash-out period between successive GLP-1 derivative dosings.
Blood samples (for example 0.8 ml) were collected in EDTA buffer (8 mM) and then centrifuged at 4° C. and 1942G for 10 minutes.
Plasma was pipetted into Micronic tubes on dry ice, and kept at −20° C. until analysed for plasma concentration of the respective GLP-1 compound using LOCI. Individual plasma concentration-time profiles were analyzed by a non-compartmental pharmacokinetic method in Phoenix v. 6.2 (Pharsight Inc., Mountain View, Calif., USA), or other relevant software for PK analysis, and the resulting terminal half-lives (harmonic mean) determined.

The IC50 is the midpoint of a concentration-inhibition curve. Higher therefore signals weaker potency. For the compound `CC[C@H](C)[C@H](NC(=O)[C@H](Cc1ccccc1)NC(=O)[C@H](CCC(=O)O)NC(=O)[C@H](CCCCNC(=O)[C@@H](N)CCCCNC(=O)COCCOCCNC(=O)COCCOCCNC(=O)CC[C@H](NC(=O)CCCCCCCCCCCCCCCCC(=O)O)C(=O)O)NC(=O)[C@H](C)NC(=O)[C@H](C)NC(=O)[C@H](CCC(N)=O)NC(=O)[C@H](CCC(=O)O)NC(=O)[C@H](CCC(=O)O)NC(=O)[C@H](CC(C)C)NC(=O)[C@H](Cc1ccc(O)cc1)NC(=O)[C@H](CO)NC(=O)[C@H](CO)NC(=O)[C@@H](NC(=O)[C@H](CC(=O)O)NC(=O)[C@H](CO)NC(=O)[C@@H](NC(=O)[C@H](Cc1ccccc1)NC(=O)[C@@H](NC(=O)CNC(=O)[C@H](CCC(=O)O)NC(=O)C(C)(C)NC(=O)[C@@H](N)Cc1c[nH]cn1)[C@@H](C)O)[C@@H](C)O)C(C)C)C(=O)N[C@@H](CCCCNC(=O)[C@@H](N)CCCCNC(=O)COCCOCCNC(=O)COCCOCCNC(=O)CC[C@H](NC(=O)CCCCCCCCCCCCCCCCC(=O)O)C(=O)O)C(=O)N[C@@H](Cc1c[nH]c2ccccc12)C(=O)N[C@@H](CC(C)C)C(=O)N[C@H](C(=O)N[C@@H](CCCNC(=N)N)C(=O)NCC(=O)N[C@@H](CCCNC(=N)N)C(=O)N[C@@H](CCCCNC(=O)[C@@H](N)CCCCNC(=O)COCCOCCNC(=O)COCCOCCNC(=O)CC[C@H](NC(=O)CCCCCCCCCCCCCCCCC(=O)O)C(=O)O)C(=O)O)C(C)C` [Example 11] (H-H[Aib]EGTFTSDVSSYLEEQAAK([εLys-AEEA-AEEA-γGlu-C18 diacid])EFIK([εLys-AEEA-AEEA-γGlu-C18 diacid])WLVRGRK([εLys-AEEA-AEEA-γGlu-C18 diacid])-OH; N-terminus and C-terminus assumed), at human GLP-1 receptor, the IC50 was over 1 µM.
For orientation: half-life means the time needed for the level to fall by half in the phase considered. A low value points to fast loss. For the compound `CC[C@H](C)[C@H](NC(=O)[C@H](Cc1ccccc1)NC(=O)[C@H](CCC(=O)O)NC(=O)[C@H](CCCCNC(=O)[C@@H](N)CCCCNC(=O)COCCOCCNC(=O)COCCOCCNC(=O)[C@H](CS(=O)(=O)O)NC(=O)CCCCCCCCCCCCCCCS(=O)(=O)O)NC(=O)[C@H](C)NC(=O)[C@H](C)NC(=O)[C@H](CCC(N)=O)NC(=O)[C@H](CCC(=O)O)NC(=O)[C@H](CCC(=O)O)NC(=O)[C@H](CC(C)C)NC(=O)[C@H](Cc1ccc(O)cc1)NC(=O)[C@H](CO)NC(=O)[C@H](CO)NC(=O)[C@@H](NC(=O)[C@H](CC(=O)O)NC(=O)[C@H](CO)NC(=O)[C@@H](NC(=O)[C@H](Cc1ccccc1)NC(=O)[C@@H](NC(=O)CNC(=O)[C@H](CCC(=O)O)NC(=O)C(C)(C)NC(=O)[C@@H](N)Cc1c[nH]cn1)[C@@H](C)O)[C@@H](C)O)C(C)C)C(=O)N[C@@H](CCCCNC(=O)[C@@H](N)CCCCNC(=O)COCCOCCNC(=O)COCCOCCNC(=O)[C@H](CS(=O)(=O)O)NC(=O)CCCCCCCCCCCCCCCS(=O)(=O)O)C(=O)N[C@@H](Cc1c[nH]c2ccccc12)C(=O)N[C@@H](CC(C)C)C(=O)N[C@H](C(=O)N[C@@H](CCCNC(=N)N)C(=O)NCC(=O)N[C@@H](CCCNC(=N)N)C(=O)N[C@@H](CCCCNC(=O)[C@@H](N)CCCCNC(=O)COCCOCCNC(=O)COCCOCCNC(=O)[C@H](CS(=O)(=O)O)NC(=O)CCCCCCCCCCCCCCCS(=O)(=O)O)C(=O)O)C(C)C` [Example 12], the half-life in “in vivo” was 111 h.

Values taken from patent US10266577B2, “GLP-1 derivatives, and uses thereof” (Novo Nordisk A/S, priority 2013, dated 2019).
